Reference: PMC8778681, “Crystal Structure, Solubility, and Pharmacokinetic Study on a Hesperetin Cocrystal with Piperine as Coformer” (Pharmaceutics, 2022)
Values after ≈ are worked out from the molar mass of the structure shown.

Assays:
[1] = Solubility experiment in simulated gastrointestinal fluid; type: physicochemical; conditions: thermodynamic from solid, 100 rpm
Procedure: The solubility of the HES–PIP cocrystal in simulated gastrointestinal fluid was measured in the present study following the method described in the literature but slightly modified. The samples were previously milled and sieved (75–150 μm) before examination to reduce the effect of the crystal’s size on its solubility behavior. A specific amount (containing 25 mg of HES) of the HES–PIP cocrystal was weighed and added into a centrifuge tube containing 5 mL dissolving medium, and the suspension was incubated at 37 ± 0.2 °C rotating at 100 rpm. Taking a tube at 0.25 h, 0.5 h, 1 h, 2 h, 4 h, 6 h, 8 h, 12 h, 24 h, and 48 h, the samples were centrifuged at 12,000 rpm for 5 min, and the supernatant was diluted with methanol and analyzed by HPLC. The cocrystal’s solubility at different times was compared with that of raw HES. […] The residual solid in each tube was also analyzed by PXRD.
The cocrystal’s supersaturation factor (SF) was calculated through the drug supersaturation–time curve following the method presented in a previous study, and the calculation formula is as follows:(1) SF=AUC0.25−48 h(Cocrystal)/AUC0.25−48 h(Hesperetin) where SF is the supersaturation factor, AUC0.25–48 h (Cocrystal) is the area under the curve of the cocrystal supersaturation–time profile, and AUC0.25–48 h (Hesperetin) is the area under the curve for a saturated solution.

[2] = Bioavailability / pharmacokinetics after oral gavage in rats; type: in vivo; conditions: Sprague-Dawley, 80 mg/kg, HES in rat plasma, equivalent to 80 mg HES/kg
Procedure: Eighteen Sprague–Dawley rats weighing 220–250 g were randomly divided into three groups (n = 6), fasted for 12 h but freely given water before the experiment. The HES, the physical mixture of HES and PIP, and the HES–PIP cocrystal were delivered by gavage at a dose equivalent to 80 mg of the HES/kg body weight of the animal as a suspension in water. Next, 500 µL blood was withdrawn and placed in a centrifuge tube with heparin from the eye sockets of rats at 0.25 h, 0.5 h, 1 h, 2 h, 4 h, 6 h, 8 h, 12 h, 24 h, and 48 h after oral administration. The plasma was separated by centrifugation (4000 rpm, 15 min) and saved at −80 °C until analysis. Next, 100 µL of plasma sample was added into 400 μL of methanol and vortexed for 5 min to fully precipitate the protein [44], then centrifuged at 10,000 rpm for 10 min. The supernatant was then transferred to another tube and evaporated to remove the solvent under a stream of nitrogen. The residual solid was then dissolved in methanol with vortex oscillation for 3 min, and the mixture was centrifuged at 10,000 rpm for 10 min. Finally, the supernatant was analyzed via HPLC method for HES content. PK parameters were obtained on the basis of a model-independent method using DAS 2 program.

- solubility ([1]; fassgf or other biorelevant, simulated gastrointestinal fluid pH 6.8, 37 °C, HES–PIP maximum at 6 h): 21.1 µg/mL (≈ 69.9 µM)
- solubility ([1]; simulated gastric fluid, simulated gastrointestinal fluid pH 1.2, 37 °C, HES–PIP maximum at 8 h): 23.1 µg/mL (≈ 76.5 µM)
- AUC(0-t) ([2]; n = 6): 530 ng·h/mL
- Tmax ([2]; n = 6): 0.5 h
- half-life ([2]; n = 6): 3.01 h
- MRT last ([2]; n = 6, read-out: MRT(0–t)): 5.86 h
- Cmax ([2]; suspension in water, n = 6): 120 ng/mL
Compound: COc1ccc([C@@H]2CC(=O)c3c(O)cc(O)cc3O2)cc1O [HES, ((S)-2,3-dihydro-5,7-dihydroxy-2-(3-hydroxy-4 methoxy-phenyl)-4H-1-benzopyran-4-one)]
